Measurements as given in US20230192701A1, “BICYCLIC KINASE INHIBITORS AND USES THEREOF” (iOmx Therapeutics AG, priority 2020, published 2023).
pIC50: −log10 of the molar value. Values after ≈ are worked out from the molar mass of the structure shown. Where two headings read alike, the source gives them in different places.

What was measured:
SIK2 = SIK2 (Homo sapiens, UniProt Q9H0K1); assay: radiometric protein kinase assay (33PanQinase Activity Assay), SIK2; format: biochemical
Procedure: (§1) The IC50s of the compounds against the SIK family of protein-serine/threonine kinases (SIK2 and SIK3) were determined as followed. Briefly, a radiometric protein kinase assay (33PanQinase® Activity Assay) was used for measuring the kinase activity of the two protein kinases. The kinase assays were performed in 96-well FlashPlates™ from PerkinElmer (Boston, Mass., USA) in a 50 uL reaction volume. The reaction cocktail was pipetted in four steps in the following order: • […] (standard buffer/[gamma-33P]-ATP) • 10 uL of ATP solution (in water) • 5 uL of test compound (in 10% DMSO) • 20 uL enzyme/substrate mix
(§2) The following amounts of enzyme and applicable substrate were used per well:
(§3) The reaction cocktails were incubated at 30 °C for 60 minutes. The reaction was stopped with 50 uL of 2% (v/v) H3PO4, plates were aspirated and washed two times with 200 μL 0.9% (w/v) NaCl. Incorporation of 33Pi was determined with a microplate scintillation counter (Microbeta, Wallac). All assays were performed with a BeckmanCoulter/SAGIAN™ Core System.

PANC1 tumour cells = assay: TNF-sensitised cell viability assay (CellTiter-Glo), PANC1; format: cell-based, human; settings: for pIC50: 100 ng/ml rHuTNF, 72 h
Procedure: (§4) Cell viability of HCT116 tumour cells was measured using the CellTiter-Glo (CTG) luminescent cell viability assay (Promega, Madison, USA) according to the manufacturer's protocol. In short, 1×10^3 HCT116 cells were seeded in a 384-well plate for 24 h and subsequently treated with different concentrations of compounds and 10 ng/ml rHuTNF for 72 h at 37° C. and 5% CO2. After incubation, CTG reagent was added to the wells and cells were lysed for 10 min. Read-out was performed using the Tecan reader with 0.1 sec counting time. TNF-induced cell killing in human PANC1 and murine MC38 tumour cells was measured analogously to the assay in human HCT116 cells, except that for the PANC1 assay 100 ng/ml rHuTNF and for the MC38 assay 100 ng/ml rMuTNF were used.

SIK3 = SIK3 (Homo sapiens, UniProt Q9Y2K2); assay: radiometric protein kinase assay (33PanQinase Activity Assay), SIK3; format: biochemical
Procedure: as §1, §2, §3

HCT116 tumour cells = assay: TNF-sensitised cell viability assay (CellTiter-Glo), HCT116; format: cell-based, human; settings: for pIC50: 10 ng/ml rHuTNF, 72 h
Procedure: as §4

MC38 tumour cells = assay: TNF-sensitised cell viability assay (CellTiter-Glo), MC38; format: cell-based, murine; settings: 100 ng/ml rMuTNF, 72 h
Procedure: as §4

HCT116 and PANC1 = assay: toxicity against the cell lines in the absence of TNF; format: cell-based; settings: 0 ng/mL TNF, up to concentrations of 10 uM
Procedure: Typically, those compounds of Formula (I) tested were less toxic against the cell lines than the prior art compound PY1 when tested (eg, in the absence of TNF), especially against the human cell lines such as HCT116 (data not shown).
as §4

human skin explants = settings: topical treatment; Mujahid et al 2017; cited from earlier work
[1] = tested on: MPAL-associated AML cell lines (including MOLM-13 and MV4-11); settings: Tarumoto et al 2018; cited from earlier work
[2] = pharmacokinetic study, plasma level after single po or iv administration; format: in vivo, male CD1 mice; settings: mice
Procedure: Screening PK properties of compounds of Formula (I) are additionally determined, including plasma and free plasma concentration, as well as Cmax. For example, the free concentration of compound after a dose of eg 30 mg/kg po (per os) administered mice can be determined for certain time points after administrations.
To further investigate PK properties of kinase inhibitors of Formula (I), the compounds are tested for in vivo drug exposure and potency in a full pharmacokinetic study with oral administration (per os, po).
The experimental procedure and the determination of the pharmacokinetic parameters are investigated after single administration of each compound per gavage in male CD1 mice (Intonation Research Laboratories (Hyderabad, India)). The compounds are diluted in 5% DMSO+5% Solutol+90% water. Plasma level (eg sampling 0.25 h; 0.5 h; 1 h; 1.5 h; 2 h; 4 h; 6 h; 12 h; 24 h after drug administration) of the compounds are analysed by LC-MS/MS and pharmacokinetic parameters are determined using non-compartmental analysis and nominal dose levels of eg 30 mg/kg po and 1 mg/kg iv. Three animals are analysed per time point and each mouse is used for three plasma samplings in total.

[3] = Murine plasma protein binding (RED method); format: in vitro ADME; settings: mouse
Procedure: (§5) Human and mice protein plasma binding was determined using the Plasma Protein Binding by RED Method. Briefly, 200 uL of the respective plasma containing the test compound (10 uM) was spiked into the donor well (RED Chamber) of the insert. 350 uL of PBS was spiked into receiver well (white chamber). The plate was incubated at 37° C. in a thermomixer at 400 rpm for 5 hours. The samples were matrix equilibrated with opposite matrix (25 uL blank buffet/Plasma). Matrix matched samples were precipitated with 200 uL of Acetonitrile containing Internal standard. Samples were vortexed at 1000 rpm for 5 min and centrifuged at 4000 rpm for 10 min. The supernatant was diluted 2 folds with water and % bound and unbound protein and % recovery at 5 h was determined by LC-MS/MS.
(§6) LC-MS/MS was performed for all assays using a C18 column (50*4.6 mm, 5 um) for the CaCo2 assay, or a C18 column (50*4.6 mm, 4 um) for the other assays. The mobile phases used were 10 mM Ammonium Acetate with 0.1% Formic acid (aqueous) and 100% Acetonitrile (organic).

[4] = Human liver microsomal stability; format: in vitro ADME; settings: pH 7.4; human liver microsomes, NADPH, 37°C
Procedure: (§7) Briefly, human and liver microsomal stability was determined by pre-incubation of 2.5 uL compound and 75 uL of the respective liver microsomes in potassium phosphate buffer (pH 7.4) at 37° C. After adding of NADPH as cofactor and further incubation at 37° C. for 60 min, acetonitrile containing internal standard was added, and the sample was vortexed for 5 min at 1200 rpm and then centrifuged 10 min at 4000 rpm.
as §6

[5] = Human hepatocyte stability; format: in vitro ADME; settings: human hepatocytes, 37°C
Procedure: (§8) Determination of human and mice hepatocyte stability was conducted as follows. 200 uL of the respective hepatocyte cell suspension (2×10e6/ml) was preincubated at 37° C. for 10 min. Then, 200 uL of a 2 uM working stock of the test compound was added to the hepatocyte cell suspension, and the mixture was further incubated at 37° C. and 500 rpm. The reaction was stopped at 30, 60 and 120 min by precipitating 50 uL of the incubation mixture with 200 uL of acetonitrile. Samples were vortexed for 5 min at 1200 rpm and centrifuged at 4000 rpm for 10 min. Intrinsic clearance and half-life were analysed using LC-MS/MS.
as §6

[6] = Mouse liver microsomal stability; format: in vitro ADME; settings: pH 7.4; mouse liver microsomes, NADPH, 37°C
Procedure: as §7, §6

[7] = Mouse hepatocyte stability; format: in vitro ADME; settings: mouse hepatocytes, 37°C
Procedure: as §8, §6

AML = settings: administered intraperitoneally; Tarumoto et al 2020; cited from earlier work
Kinetic solubility assay = format: physicochemical; settings: aqueous buffer, kinetic from dmso stock; PBS buffer pH 7.4, 1.0% DMSO, 24 h at RT
Procedure: The Kinetic solubility assay was conducted as follows. 4 uL compound of the 50 mM DMSO stock was added to deep well plate containing 396 uL PBS buffer (pH 7.4). The DMSO content in the sample was 1.0%, and the compound concentration 500 μM. The sample plate was vortexed at 800 rpm for 24 h at RT on a thermomixer. At the end of the incubation period, the sample plate was centrifuged at 4000 rpm for 10 mins. 3 uL of supernatant was transferred to well containing 297 uL of ISTD in Acetonitrile water:50:50, v/v and analysed in LC-MS/MS against a calibration curve (CC).

[8] = Human plasma-protein binding (RED method); format: in vitro ADME
Procedure: as §5, §6

[9] = CaCo2 permeability and efflux assay; format: in vitro ADME; settings: human, Caco-2; CaCo2, mean efflux ratio
Procedure: (§9) To determine apparent permeability of the compounds an assay using a Caco-2 cells monolayer (cultured for 21d) in a 24-well format (poly carbonate high pore density plate with 0.4 μm pore size and a 0.7 cm2 active membrane area; Millipore) was performed as followed. 800 uL of DMEM was added to the basal compartment of the 24 well-plate and 60000 CaCo2 cells/well were seeded in the apical wells and incubated in a CO2 incubator at 37° C. for proliferation of cells. Apical to Basal permeability was determined by adding 400 uL of test compound to the apical well and 800 uL of HBSS buffer with 2% BSA to the basal well. 25 uL of basal sample was collected after 120 min and processed as stated below. Basal to Apical permeability was determined by adding 800 uL of test compound to basal well and 400 uL of HBSS buffer with 2% BSA to apical well. 25 uL of apical sample was collected after 120 min and processed as stated below. The samples were processed by diluting the donor samples 1:1 with HBSS containing 2% BSA and the receiver samples 1:1 with HBSS buffer. Samples were then precipitated with 200 uL of acetonitrile containing internal standard, vortexed for 5 min at 1000 rpm, and centrifuged at 4000 rpm for 20 min. 150 uL of supernatant was diluted with 150 uL of water and submitted for LC-MS/MS analysis, and Bi-directional (A-B and B-A) apparent permeability (Papp) was calculated.
as §6

Caco-2 cells monolayer = assay: CaCo2 permeability and efflux assay; format: in vitro ADME; settings: CaCo2, apical to basal, 120 min
Procedure: as §9, §6

[10] = ATP 1.0 μM, substrate RBER-CHKtide

Sequence of SIK2 (Q9H0K1 whole entry): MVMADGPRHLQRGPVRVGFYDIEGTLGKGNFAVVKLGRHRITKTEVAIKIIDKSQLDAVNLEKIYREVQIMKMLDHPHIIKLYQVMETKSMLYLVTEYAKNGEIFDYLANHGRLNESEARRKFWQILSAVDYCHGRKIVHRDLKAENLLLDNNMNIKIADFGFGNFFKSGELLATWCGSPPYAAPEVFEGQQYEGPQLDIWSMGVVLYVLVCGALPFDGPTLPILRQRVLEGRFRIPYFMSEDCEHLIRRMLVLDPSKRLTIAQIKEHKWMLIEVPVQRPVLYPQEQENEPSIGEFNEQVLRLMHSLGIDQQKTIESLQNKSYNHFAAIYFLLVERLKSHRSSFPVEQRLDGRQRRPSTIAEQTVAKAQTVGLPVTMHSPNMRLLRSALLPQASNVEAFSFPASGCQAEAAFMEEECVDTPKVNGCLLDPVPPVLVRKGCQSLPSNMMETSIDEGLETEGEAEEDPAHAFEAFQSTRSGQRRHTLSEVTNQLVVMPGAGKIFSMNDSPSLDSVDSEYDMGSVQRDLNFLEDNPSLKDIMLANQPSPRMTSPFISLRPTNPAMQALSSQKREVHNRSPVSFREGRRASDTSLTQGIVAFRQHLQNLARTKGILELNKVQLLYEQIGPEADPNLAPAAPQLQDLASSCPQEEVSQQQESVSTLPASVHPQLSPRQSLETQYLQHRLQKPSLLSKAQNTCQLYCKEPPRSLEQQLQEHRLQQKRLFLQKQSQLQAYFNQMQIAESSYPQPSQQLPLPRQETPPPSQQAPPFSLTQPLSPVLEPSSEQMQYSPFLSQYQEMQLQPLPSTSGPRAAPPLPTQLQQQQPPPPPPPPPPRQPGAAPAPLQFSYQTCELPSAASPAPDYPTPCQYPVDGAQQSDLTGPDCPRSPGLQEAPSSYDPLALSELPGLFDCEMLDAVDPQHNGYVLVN
Sequence of SIK3 (Q9Y2K2 whole entry): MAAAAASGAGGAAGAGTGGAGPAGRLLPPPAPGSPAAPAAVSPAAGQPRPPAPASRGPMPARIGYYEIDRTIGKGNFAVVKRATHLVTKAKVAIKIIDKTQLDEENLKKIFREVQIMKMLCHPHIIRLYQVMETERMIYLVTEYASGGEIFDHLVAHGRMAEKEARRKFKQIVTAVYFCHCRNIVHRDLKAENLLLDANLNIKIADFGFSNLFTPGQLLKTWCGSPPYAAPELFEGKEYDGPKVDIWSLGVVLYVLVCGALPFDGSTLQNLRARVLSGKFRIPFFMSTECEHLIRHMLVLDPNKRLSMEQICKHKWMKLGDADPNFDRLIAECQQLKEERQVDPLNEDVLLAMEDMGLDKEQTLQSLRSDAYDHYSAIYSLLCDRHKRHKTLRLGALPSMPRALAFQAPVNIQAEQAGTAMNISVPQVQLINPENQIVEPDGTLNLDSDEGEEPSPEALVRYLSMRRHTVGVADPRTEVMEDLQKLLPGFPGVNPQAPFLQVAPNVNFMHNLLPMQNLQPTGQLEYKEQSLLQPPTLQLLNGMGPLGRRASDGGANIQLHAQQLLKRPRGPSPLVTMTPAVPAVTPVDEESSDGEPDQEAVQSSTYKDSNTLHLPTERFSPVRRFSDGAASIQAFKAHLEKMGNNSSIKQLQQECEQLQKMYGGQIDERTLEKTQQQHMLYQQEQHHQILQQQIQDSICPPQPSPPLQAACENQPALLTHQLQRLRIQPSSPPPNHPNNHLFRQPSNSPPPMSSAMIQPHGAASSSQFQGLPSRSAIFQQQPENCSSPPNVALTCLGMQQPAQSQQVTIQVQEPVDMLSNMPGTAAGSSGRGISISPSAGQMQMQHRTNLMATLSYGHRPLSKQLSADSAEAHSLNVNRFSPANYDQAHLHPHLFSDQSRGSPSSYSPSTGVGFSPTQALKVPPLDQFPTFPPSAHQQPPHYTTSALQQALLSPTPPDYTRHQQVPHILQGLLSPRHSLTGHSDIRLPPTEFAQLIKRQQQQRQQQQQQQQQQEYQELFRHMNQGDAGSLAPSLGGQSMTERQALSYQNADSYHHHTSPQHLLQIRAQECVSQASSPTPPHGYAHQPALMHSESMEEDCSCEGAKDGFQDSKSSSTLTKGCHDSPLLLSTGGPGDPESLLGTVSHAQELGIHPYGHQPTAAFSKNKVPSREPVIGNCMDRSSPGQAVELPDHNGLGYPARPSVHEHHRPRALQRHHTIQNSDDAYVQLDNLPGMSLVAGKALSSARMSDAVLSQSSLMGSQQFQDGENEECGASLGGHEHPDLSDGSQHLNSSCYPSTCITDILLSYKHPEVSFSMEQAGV

**Q.** Which IC50 (SIK2; [10]) does the source give for `COc1ccc(N2C(=O)N(c3c(CF)csc3Cl)Cc3cnc(Nc4ccc(N5CCN(C)CC5)cc4)nc32)nc1` [AA6, 3-(2-chloro-4-(fluoromethyl)thiophen-3-yl)-1-(5-methoxypyridin-2-yl)-7-((4-(4-methylpiperazin-1-yl)phenyl)amino)-3,4-dihydropyrimido[4,5-d]pyrimidin-2(l H)-one] here?
**A.** < 50 nM

**Q.** What about the “inhibiting SIK2 compared to PY1” value (SIK2; in words) of the same molecule?
**A.** superior in inhibiting SIK2 and SIK3 compared to PY1

**Q.** And the “sensitisation of PANC tumour cells to the cytotoxic effects of TNF compared to PY1” value (PANC1 tumour cells; in words)?
**A.** stronger effect than PY1

**Q.** And the pIC50 (PANC1 tumour cells; read-out: PANC IC50 (at 100 ng/ml rHuTNF))?
**A.** 6.30 to 7.00

**Q.** And the IC50 (SIK3; [10])?
**A.** < 50 nM

**Q.** What about the “inhibiting SIK3 compared to PY1” value (SIK3; in words) of the same molecule?
**A.** superior in inhibiting SIK2 and SIK3 compared to PY1

**Q.** And the “sensitisation of HCT116 tumour cells to the cytotoxic effect of TNF compared to PY1” value (HCT116 tumour cells; in words)?
**A.** much stronger effect compared to the prior art compound PY1

**Q.** What about the pIC50 (HCT116 tumour cells; read-out: HCT116 IC50 (at 10 ng/ml rHuTNF)) of the same molecule?
**A.** > 7.00

**Q.** What about the pIC50 (MC38 tumour cells; read-out: MC38 IC50 (at 100 ng/ml rMuTNF)) of the same molecule?
**A.** 6.00 to 6.30

**Q.** What about the “toxicity against the cell lines in the absence of TNF” value (HCT116 and PANC1) of the same molecule?
**A.** essentially non-toxic

**Q.** Which “eumelanisation in human skin” value (human skin explants) does the source give for `COc1ccc(N(C(=O)Nc2c(C)cccc2C)c2cc(Nc3ccc(N4CCN(C)CC4)cc3)ncn2)c(OC)c1` [HG-9-91-01] here?
**A.** able to induce eumelanisation

**Q.** What about the “viability of MPAL-associated AML cell lines” value [1] of the same molecule?
**A.** strongly decreases viability

**Q.** For `COc1ccc(N2C(=O)N(c3c(C)cccc3Cl)Cc3cnc(Nc4ccc(C5CCN(C)CC5)cc4OC)nc32)nc1` [PY1, 3-(2-chloro-6-methylphenyl)-7-((2-methoxy-4-(1-methylpiperidin-4-yl)phenyl)amino)-1-(5-methoxypyridin-2-yl)-3,4-dihydropyrimido[4,5-d]pyrimidin-2(1H)-one, reference compound], which “compound detectable in plasma after 24 h” value ([2]; 1 mg/kg iv) is on record?
**A.** No PY1 (the prior art compound YKL-05-099) was detectable after 24 h

**Q.** What about the “compound detectable in plasma after 24 h” value ([2]; 30 mg/kg po) of the same molecule?
**A.** No PY1 (the prior art compound YKL-05-099) was detectable after 24 h

**Q.** And the recovery at 5 h, 10 uM [3]?
**A.** 42%

**Q.** What about the half-life [4] of the same molecule?
**A.** 2.57 h

**Q.** And the pIC50 (PANC1 tumour cells; Homo sapiens, PANC-1, read-out: PANC IC50 (at 100 ng/ml rHuTNF))?
**A.** 6.00 to 6.30

**Q.** What about the half-life at 1 uM [5] of the same molecule?
**A.** 10.7 h

**Q.** What about the half-life [6] of the same molecule?
**A.** 1.45 h

**Q.** And the half-life at 1 uM [7]?
**A.** 1.25 h

**Q.** What about the AML progression in-vivo (AML) of the same molecule?
**A.** suppressed AML progression in-vivo

**Q.** What about the solubility kinetic at 24 h (Kinetic solubility assay) of the same molecule?
**A.** 3.6 µM (≈ 2.16 µg/mL)

**Q.** And the pIC50 (HCT116 tumour cells; Homo sapiens, HCT-116, read-out: HCT116 IC50 (at 10 ng/ml rHuTNF))?
**A.** 6.00 to 6.30

**Q.** What about the pIC50 (MC38 tumour cells; Mus musculus, MC-38, read-out: MC38 IC50 (at 100 ng/ml rMuTNF)) of the same molecule?
**A.** 6.00 to 6.30

**Q.** What about the recovery at 5 h, 10 uM [8] of the same molecule?
**A.** 53%

**Q.** And the efflux ratio at 120 min [9]?
**A.** 3.2

**Q.** What about the “A > B(10 EE-06 cm/s)” value (Caco-2 cells monolayer) of the same molecule?
**A.** 9.5 10 EE-06 cm/s
